Experimental data from US20160166569A1, “METHOD FOR TREATING SKIN THICKENING” (GALDERMA RESEARCH & DEVELOPMENT, priority 2013, published 2016).
Where two headings read alike, the source gives them in different places.

Test system: UV-induced skin thickening
Details: for other skin disorders induced by UV-irradiation (low grade of erythema or flaking, white raised area on skin, wrinkling): compared to vehicle control
Protocol: Albino hairless SKHI-hr mice (36/sex/group) were treated for 40 weeks with UVR and brimonidine gel or vehicle according to the design in Table 11. […] Topical treatments were performed approximately one hour before UVR on Monday, Wednesday and Friday of each week and approximately one hour after UVR Tuesday and Thursday of each week.
N/N=Total number of observations/number of mice with observation

## Brc1c(NC2=NCCN2)ccc2nccnc12 [brimonidine, (5-bromo-quinoxalin-6-yl)-(4,5-dihydro-1H-imidazol-2-yl)-amine]
0.18% (w/w) topical
  UV-induced skin thickness, statistical effect: did not statistically reduce
  incidence of skin thickening compared to the UV control group: observably lower
1% (w/w) topical
  UV-induced skin thickness, statistical effect compared to the UV control group: statistically reduced
  other skin disorders induced by UV-irradiation (low grade of erythema or flaking, white raised area on skin, wrinkling): reduced
2% (w/w) topical
  UV-induced skin thickness, statistical effect compared to the UV control group: statistically reduced
  other skin disorders induced by UV-irradiation (low grade of erythema or flaking, white raised area on skin, wrinkling): reduced
Mice exposed to UV radiation, summary statement
  skin thickening or other skin disorders: significant reduction
Topical application at 0.18%, 1% and 2% (w/w), UVR 600 RBU/week
  UV-induced skin thickening: dose-dependent reduction
